Where two headings read alike, the source gives them in different places.
Tests used:
[1] = tested on: OV-1063; test: Methylene blue assay of cell survival; assay type: cell-based, human; conditions: Table 8B
Source text: (§1) Several tumor cell lines in monolayers were used. A human ovarian carcinoma cell line (OV-1063), established at the Hadassah University Hospital, a human colon carcinoma cell line (C-26), a DOX-sensitive M-109S ([…]), and a DOX-resistant, M-109R ([…]). All cell lines were maintained in RPMI-1640 medium supplemented with 10% FCS, antibiotics, and glutamine. All culture medium components were purchased from Biological Industries (Beit-HaEmek, Israel). Both cell lines were maintained at 37° C. in a water-jacketed CO2 incubator.
(§2) a) Various ceramides (Cer) with different chain lengths: short (C2 Cer and C4 Cer), medium (C6 Cer and C8 Cer), and long (C16 Cer) were first dissolved in 100% ethanol to a concentration of 30 mM, added to a serum-containing medium and mixed immediately. The final ethanol concentration in the serum-containing culture medium ranged from 0.1-0.5% (depending on the type of ceramide (Cer)).
(§3) b) Various ceramides with different chain lengths: short C2 Cer, medium C6 Cer, and long C16 Cer were dissolved in ethanol:dodecane (98:2 v/v) to a concentration of 30 mM and added to serum-free medium and mixed. Final concentrations of the ethanol and dodecane in the culture medium containing 10% of FCS ranged from 0.098-0.49% and 0.002-0.01%, respectively, depending on the type of ceramide.
(§4) The cytotoxicity of the examined assemblies comprising ceramide was tested by the methylene blue ([…]) staining assay [Gorodetsky, R. et al. Int. J. Cancer. 75:635-642 (1998)]. A known number of exponentially growing cells in 200 μL of medium were plated in 96-microwell, flat-bottomed plates. For each of the variants tested, 4 wells were used. Following 24 hr of incubation in culture, 20 μL of different concentrations of the examined assemblies were added to each well containing untreated cells.
(§5) The following controls were used: Citrate buffer (5 mM, pH 7); Ethanol solution in medium RPMI 1640 (final concentration of 0.1%); A solution RPMI 1640 of ethanol:dodecane (98:2 […]) at a final concentration of 0.1% and 0.2%, respectively.
(§6) Cells were exposed to assemblies for 4, 24, 72 or 96 hr. At the end of assembly exposure, for a fixed time interval, the drug-treated cells, as well as parallel control cells, were washed, and the incubation continued in fresh medium until termination of the experiment. Following 72 hr or 96 hr of growth, cells were fixed by adding 50 μL of 2.5% glutaraldehyde to each well for 15 min. Fixed cells were rinsed 10 times with deionized water and once with borate buffer (0.1 M, pH 8.5), dried, and stained with MB (100 μL of 1% solution in 0.1 M borate buffer, pH 8.5) for 1 h at room temperature (r.t.). Stained cells were rinsed thoroughly with de-ionized water to remove any non-cell-bound dye and then dried. The MB bound to the fixed cells was extracted by incubation at 37° C. with 200 μL of 0.1 N HCl for 1 h, and the net optical density of the dye in each well was determined by a plate spectrophotometer (Labsystems Multyskan Bichromatic, Finland) at 620 nm.

[2] = tested on: C-26; test: Methylene blue assay of cell survival; assay type: cell-based, human
Source text: as §1, §2, §3, §4, §5, §6

[3] = Size distribution of ceramide dispersions by DLS; assay type: physicochemical
Protocol: The particle size distribution of all liposome dispersions prepared was determined at 25° C. by dynamic light-scattering (DLS) using the ALV-NIBS/HPPS ALV-Laser, Vertriebsgesellschaft GmbH, (Langen, Germany) instrument.
However, so far the biological activity of the ceramides was not evaluated in vivo in spite their potential beneficial activity due to difficulties in their delivery. As mentioned above, ceramides by themselves are difficult to be dispersed in serum-free medium. […] When a volume of ceramides (C2Cer, C6Cer, and C16Cer) in ethanol:dodecane (98:2 v/v) was diluted into 100 volumes of serum-free medium a milky translucent dispersion was formed.
However, when these ceramide dispersions were diluted further (final dilution 1:1000) in serum-containing medium, a 4-6 fold increase in particle size was observed. As a control, when the solvents ethanol:dodecane (98:2) were mixed by themselves with medium without ceramides, no particles were detected by DLS. Also, for comparison, when ceramide solutions in ethanol (without dodecane) were diluted 1:100 in serum-containing medium very large particles were observed by DLS (Table 11).

[4] = Surface-pressure area isotherms; assay type: physicochemical; conditions: for minimal area per molecule: constant pressure of 20 mN/m; for collapse point pressure of monolayer: pure water sub-phase; for Area/molecule: table, monolayer on pure water sub-phase
Protocol: The tested ceramides (C2 Cer, C4 Cer, C6 Cer, C8 Cer, C16 Cer) were dried in vacuum overnight, weighted and dissolved in hexane/isopropanol (3:2 vol.) to make the following stock solutions.
The surface-pressure/area isotherms were obtained on pure water sub-phase (similar isotherms were obtained on 140 mM NaCl). Barrier speed during compression was […] for all monolayers.
The minimal area per molecule of different ceramides (C2 Cer, C4 Cer, C6 Cer, C8 Cer, C16 Cer) was calculated at the constant pressure of 20 mN/m. […] The area per molecule of C2 Cer, C4 Cer, C8 Cer, C16 Cer was about 38, 46, 45.5, and 37.5^2, respectively.

[5] = tested on: C-26 cells; test: Apoptosis by chromatin morphology (Hoechst-33342, confocal microscopy); assay type: cell-based, human
Protocol: (§7) a) The morphology of chromatin was assessed by staining with Hoechst-33342 obtained from Calbiochem (La Jolla, Calif.), a molecule which when reside in the minor groove of the DNA strand enhance its fluorescence intensity and, therefore, it is preferentially stains dsDNA [Jouvet, P. Mol. Biol. Cell 11:1919-1932 (2000)]. Briefly, samples containing 5*10^5 cells were cultured on 6-well plates covered with a glass coverslip. After treatment of cells with IC50 of drugs, cells were washed with PBS and fixated with 4% formaldehyde. After that cells were stained with Hoechst-33342 (5 μg/ml) and washed. Thereafter, glass coverslip was placed on a glass slide and photographed using a CLMS.

[6] = tested on: OV-1063 cells; test: as above; assay type: cell-based, human; conditions: for Apoptotic OV-1063 cells (% of total cell number), 16 hr: IC50 concentrations
Protocol: as §7

[7] = Partition in the two phases of the Dole system; assay type: physicochemical
[8] = read-out: IC50 (μM), 4 hr OV-1063
[9] = read-out: IC50 (μM), 24 hr OV-1063
[10] = read-out: IC50 (μM), 72 hr OV-1063
[11] = Table 8A, C-26 cells, free ceramide dispersions, read-out: IC50 (μM), 4 hr
[12] = Table 8A, C-26 cells, read-out: IC50 (μM), 24 hr
[13] = Table 8A, C-26 cells, read-out: IC50 (μM), 72 hr
[14] = Table 8B, read-out: IC50 (μM), 4 hr C-26
[15] = Table 8B, read-out: IC50 (μM), 24 hr C-26
[16] = Table 8B, read-out: IC50 (μM), 72 hr C-26

Structure (SMILES)	IC50 [1, 8]	IC50 [1, 9]	IC50 [1, 10]	IC50 [2, 11]	IC50 [2, 12]	IC50 [2, 13]	IC50 [2, 14]	IC50 [2, 15]	IC50 [2, 16]	Size (nm), Ethanol dispersion in serum-containing medium (1:100) [3]	Size (nm), Ethanol:dodecane (98:2) dispersion in serum-containing medium (1:1000) [3]	Size (nm), Ethanol:dodecane (98:2) dispersion in serum-free medium (1:100) [3]	monolayer stability [4]	minimal area per molecule [4]	collapse point pressure of monolayer [4]	Area/molecule [4]	Apoptotic C-26 cells (% of total cell number), 16 hr [5]	Apoptotic C-26 cells (% of total cell number), 24 hr [5]	Apoptotic OV-1063 cells (% of total cell number), 24 hr [6]	Liposome formation (being a liposome forming lipid by itself) [7]	further results
CCCCCCCCCCCCC/C=C/[C@@H](O)[C@H](CO)NC(C)=O [C2Cer, N-Acetyl-D-erythro-sphingosine]	> 80 µM	> 30 µM	25 ± 1.9 µM	> 60 µM	> 30 µM	20 ± 1 µM	> 60 µM	> 30 µM	20 ± 1 µM	6514 nm	1400 nm	330 nm	did not give a stable monolayer	about 38 Å^2	about 42 mN/m	38 A^2	7%	14%	60%	No	Apoptotic OV-1063 cells (% of total cell number), 16 hr [6]: 48%
CCCCCCCCCCCCC/C=C/[C@@H](O)[C@H](CO)NC(=O)CCCCC [C6Cer, N-hexanoyl-D-erythro-sphingosine]	8 ± 0.1 µM	4.5 ± 0.7 µM	2.3 ± 1 µM	11 ± 5 µM	4.1 ± 1.6 µM	2.9 ± 1.2 µM	11 ± 5 µM	4.1 ± 1.6 µM	2.9 ± 1.2 µM	3780 nm	2100 nm	330 nm	–	about 50 Å^2	about 42 mN/m	50 A^2	9%	18%	61%	No	Apoptotic OV-1063 cells (% of total cell number), 16 hr [6]: 53%
CCCCCCCCCCCCC/C=C/[C@@H](O)[C@H](CO)NC(=O)CCCCCCCCCCCCCCC [C16Cer, N-palmitoyl-D-erythro-sphingosine]	> 100 µM	> 100 µM	90 µM	> 100 µM	> 100 µM	80 µM	> 100 µM	> 100 µM	80 µM	4740 nm	2824 nm	790 nm	unstable monolayer	~37.5 Å^2	up to 50 mN/m	37.5 A^2	–	9%	17%	No	–

— patent US20060198882A1, “Stable liposomes or micelles comprising a sphinolipid and a peg-lipopolymer” (priority 2003, published 2006)
